Laboratory results reported in PMC4660442, “Identification of potential inhibitors based on compound proposal contest: Tyrosine-protein kinase Yes as a target” (Scientific Reports, 2015).

Biological target: T1, tyrosine-protein kinase Yes (Homo sapiens, UniProt P07947)
T1 construct: gene YES1
Test: reference inhibitor in ADP-Glo kinase assay, recombinant human Yes; no value given
Assay type: biochemical

T1 sequence (P07947 2-543): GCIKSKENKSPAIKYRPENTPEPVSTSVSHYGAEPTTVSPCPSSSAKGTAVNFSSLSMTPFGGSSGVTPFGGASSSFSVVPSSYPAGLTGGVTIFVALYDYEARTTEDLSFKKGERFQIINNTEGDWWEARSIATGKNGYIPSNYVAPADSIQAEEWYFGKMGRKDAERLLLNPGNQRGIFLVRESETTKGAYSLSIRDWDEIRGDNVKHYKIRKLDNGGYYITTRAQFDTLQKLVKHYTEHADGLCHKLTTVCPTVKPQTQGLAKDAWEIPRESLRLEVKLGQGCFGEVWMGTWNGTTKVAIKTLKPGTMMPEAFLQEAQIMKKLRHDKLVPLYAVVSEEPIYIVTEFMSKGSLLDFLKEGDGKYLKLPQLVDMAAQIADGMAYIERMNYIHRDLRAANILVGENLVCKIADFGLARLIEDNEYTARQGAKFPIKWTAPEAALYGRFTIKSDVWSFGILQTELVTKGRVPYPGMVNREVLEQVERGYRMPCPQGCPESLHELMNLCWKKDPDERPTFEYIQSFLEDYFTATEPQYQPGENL

CN[C@@H]1C[C@H]2O[C@@](C)([C@@H]1OC)n1c3ccccc3c3c4c(c5c6ccccc6n2c5c31)C(=O)NC4 [Staurosporine]
reference inhibitor in ADP-Glo kinase assay, recombinant human Yes; no value pri: Staurosporine, a well-known pan-kinase inhibitor typically used as a reference in kinase assays, was selected as an active inhibitor for Yes
